From publication PMC11952846, “The sterol-regulating human ARV1 binds cholesterol and phospholipids through its conserved ARV1 homology domain” (The Journal of Biological Chemistry, 2025)
Where a chain is given by its changes, count along the chain named. Blank lines part the entries; values can stand above or below the molecule they belong to.

What was measured:
[1] = target: T1, GST-ARV1 (full-length ARV1) (Homo sapiens, UniProt Q9H2C2); experiment: Lipid overlay far western; format: binding; settings: lipid-embedded membrane strips, incl. sphingolipid strip
T1 construct: Expresses full length ARV1; made in house; host or cells: E. coli BL21 (pGEX-4T1)
T1 sequence (Q9H2C2 1-271): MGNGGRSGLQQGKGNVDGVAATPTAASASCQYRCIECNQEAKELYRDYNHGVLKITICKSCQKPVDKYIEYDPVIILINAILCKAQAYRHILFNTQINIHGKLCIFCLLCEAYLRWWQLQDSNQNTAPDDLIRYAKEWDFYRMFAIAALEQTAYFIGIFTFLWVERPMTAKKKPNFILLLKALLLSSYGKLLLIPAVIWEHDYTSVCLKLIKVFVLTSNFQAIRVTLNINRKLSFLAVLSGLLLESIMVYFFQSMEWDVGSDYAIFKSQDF
Method: (§1) Lipid overlays were blocked in TBST-BSA (100 mM Tris–HCl buffer, pH 7.5, 150 mM NaCl, 0.5% Tween 20, 3% bovine serum albumin) for 1 h and subsequently washed eight separate times with TBST for 2 min each. Overlays were incubated with 0.5 μg/ml GST-tagged or 6XHIS-tagged proteins in 3% TBST-BSA buffer containing 0.1% Triton X-100, for 1 h at room temperature and washed as above. Overlays were incubated with either anti-GST or anti-6XHIS monoclonal antibodies at a 1:1000 dilution in TBST-BSA for 1 h at room temperature followed by eight washes in TBST. Overlays were visualized using Immobilon Western Chemiluminescent horseradish peroxidase substrate and protein–lipid interaction was detected using a GE ImageQuant LAS 3000 imager.

GST-ARV1-N98 = target: T2, GST-ARV1-N98 (Homo sapiens, UniProt Q9H2C2); experiment: Lipid overlay far western; format: binding; settings: lipid-embedded membrane strips, incl. sphingolipid strip
T2 construct: Expresses amino-terminal 98 amino acids of ARV1; made in house; host or cells: E. coli BL21 (pGEX-4T1)
T2 sequence (Q9H2C2 1-98): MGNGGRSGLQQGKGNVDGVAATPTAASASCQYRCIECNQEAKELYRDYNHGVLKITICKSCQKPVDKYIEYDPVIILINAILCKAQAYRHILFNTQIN
Method: as §1

GST-Annexin A2 = GST-Annexin A2 (Homo sapiens, UniProt P07355); experiment: Lipid overlay far western (positive control protein); format: binding; settings: lipid-embedded membrane strips, incl. sphingolipid strip
Sequence of GST-Annexin A2 (P07355 whole entry): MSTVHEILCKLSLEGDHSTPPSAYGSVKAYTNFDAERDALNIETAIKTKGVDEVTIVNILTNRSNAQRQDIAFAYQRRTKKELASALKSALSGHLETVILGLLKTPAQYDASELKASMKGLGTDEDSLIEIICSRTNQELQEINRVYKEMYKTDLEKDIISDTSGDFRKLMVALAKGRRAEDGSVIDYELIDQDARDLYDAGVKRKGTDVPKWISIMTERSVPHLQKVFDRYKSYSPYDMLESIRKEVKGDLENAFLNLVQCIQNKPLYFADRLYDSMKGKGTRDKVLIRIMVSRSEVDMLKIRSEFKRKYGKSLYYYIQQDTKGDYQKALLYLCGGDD
Method: as §1

GST-ARV1-N70 = target: T3, GST-ARV1-N70 (Homo sapiens, UniProt Q9H2C2); experiment: Lipid overlay far western, truncation; format: binding; settings: compared to ARV1-N98
T3 construct: Expresses amino-terminal 70 amino acids of ARV1; made in house; host or cells: E. coli BL21 (pGEX-4T1)
T3 sequence (Q9H2C2 1-70): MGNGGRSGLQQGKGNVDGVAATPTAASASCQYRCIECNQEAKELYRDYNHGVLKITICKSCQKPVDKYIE
Method: as §1

6XHIS-ARV1-N98 C34/C37A = target: T4, 6XHIS-ARV1-N98 C34/C37A (Homo sapiens, UniProt Q9H2C2, C34A/C37A); experiment: Lipid overlay far western, site-directed mutant; format: binding; settings: compared to the ARV1-N98 protein
T4 construct: Expressing amino-terminal 98 amino acids of ARV1; made in house; host or cells: E. coli BL21 (pET-28a(+))
T4 sequence (Q9H2C2 1-98 C34A/C37A): T2 sequence (Q9H2C2 1-98) with C34A, C37A
Method: as §1

6XHIS-ARV1-N98 C58/C61A = target: T5, 6XHIS-ARV1-N98 C58/C61A (Homo sapiens, UniProt Q9H2C2, C58A/C61A); experiment: Lipid overlay far western, site-directed mutant; format: binding; settings: compared to the ARV1-N98 protein
T5 construct: Expressing amino-terminal 98 amino acids of ARV1; made in house; host or cells: E. coli BL21 (pET-28a(+))
T5 sequence (Q9H2C2 1-98 C58A/C61A): T2 sequence (Q9H2C2 1-98) with C58A, C61A
Method: as §1

6XHIS-ARV1-N98 K54/K59A = target: T6, 6XHIS-ARV1-N98 K54/K59A (Homo sapiens, UniProt Q9H2C2, K54A/K59A); experiment: Lipid overlay far western, site-directed mutant; format: binding; settings: compared to the ARV1-N98 protein
T6 construct: Expressing amino-terminal 98 amino acids of ARV1; made in house; host or cells: E. coli BL21 (pET-28a(+))
T6 sequence (Q9H2C2 1-98 K54A/K59A): T2 sequence (Q9H2C2 1-98) with K54A, K59A
Method: as §1

6XHIS-ARV1-N98 K67A = target: T7, 6XHIS-ARV1-N98 K67A (Homo sapiens, UniProt Q9H2C2, K67A); experiment: Lipid overlay far western, site-directed mutant; format: binding; settings: compared to the ARV1-N98 protein
T7 construct: Expressing amino-terminal 98 amino acids of ARV1; made in house; host or cells: E. coli BL21 (pET-28a(+))
T7 sequence (Q9H2C2 1-98 K67A): T2 sequence (Q9H2C2 1-98) with K67A
Method: as §1

6XHIS-ARV1-N98 N94Q = target: T8, 6XHIS-ARV1-N98 N94Q (Homo sapiens, UniProt Q9H2C2, N94Q); experiment: Lipid overlay far western, site-directed mutant; format: binding; settings: compared to the ARV1-N98 protein
T8 construct: Expressing amino-terminal 98 amino acids of ARV1; made in house; host or cells: E. coli BL21 (pET-28a(+))
T8 sequence (Q9H2C2 1-98 N94Q): T2 sequence (Q9H2C2 1-98) with N94Q
Method: as §1

GST-ARV1-N98 C34/C37A = target: T9, GST-ARV1-N98 C34/C37A (Homo sapiens, UniProt Q9H2C2, C34A/C37A); experiment: Liposome binding assay, site-directed mutant; settings: PC:PL, sulfatide or PI(4)P liposomes
T9 construct: Expresses amino-terminal 98 amino acids of ARV1; made in house; host or cells: E. coli BL21 (pGEX-4T1)
T9 sequence (Q9H2C2 1-98 C34A/C37A): T2 sequence (Q9H2C2 1-98) with C34A, C37A
Method: (§2) Lyophilized lipids were reconstituted in chloroform at 10 mg/ml and stored in glass tubes with Teflon tops at −20 °C until use. One milliliter of 10 mg/ml stock was dried under a stream of nitrogen in a glass tube until a lipid cake/film was formed. The lipid cake was then rehydrated in BLT rehydration buffer (5 mM Tris/HCl, pH 7.4, containing 150 mM NaCl) to a concentration of 1 mg/ml. Lipid suspensions were subjected to three freeze/thaw cycles using a dry ice ethanol/[…] water bath to encapsulate the buffer and improve liposome formation. The suspension and lipid extruder were equilibrated to temperature for 10 min and liposomes were extruded using […] polycarbonate membranes (Avestin). Liposomes were made by mixing stock lipid PL (1 mg/ml) with PC (10 mg/ml).
(§3) Sulfatide liposomes were generated as previously described ([94]). All lipids were resuspended in organic solvents as per manufacturer’s instructions. Liposomes were prepared with mixing PC:PE:cholesterol:sulfatides (1:1:1:4) and subsequently dried down by lyophilization to obtain lipid films. Lipids were hydrated in 20 mM Tris–HCL, pH 6.8, containing 100 mM NaCl at a concentration of 1 mg/ml.
(§4) PI(4)P liposomes were generated as described by Knodler et al. ([95]), with some modifications. Briefly, liposomes were generated at a lipid concentration of 10 mg/ml. Liposomes contained PC (60%), PI (30%), PE (8%), and PI(4)P (2%). Lipid solution was dried down and resuspended in liposome buffer (20 mM Hepes–HCL, pH 7.4, containing 1 mM EDTA and 50 mM potassium acetate). Liposomes were formed by sonication on ice.
(§5) Liposomes were serial diluted in floatation buffer (100 mM NaCl, 2 mM EDTA, pH 5.5) to a final concentration of 0.1 mg/ml. Nine hundred microliters of liposome solution was placed in clear ultracentrifuge tubes and mixed with 100 μl of 0.01 μg/ml of protein. The liposome/protein solution was incubated at room temperature for 1 h with occasional shaking. An initial 100 μl of liposome/protein solution (liposomes) was removed and the remaining 900 μl was centrifuged at 50,000g for 20 min at 4 °C. The pellet was resuspended in 800 μl of fresh floatation buffer, centrifuged as above, and 800 μl of supernatant was removed (wash 1). This was repeated a second time and again 800 μl of supernatant was removed (wash 2). The final pellet was resuspended in 100 μl of floatation buffer plus SDS treatment buffer (pellet). Thirty microliters of each fraction was run on a 15% SDS-PAGE gel and probed with an anti-GST monoclonal antibody at a 1:1500 dilution.

GST-ARV1-N98 C58/C61A = target: T10, GST-ARV1-N98 C58/C61A (Homo sapiens, UniProt Q9H2C2, C58A/C61A); experiment: Liposome binding assay, site-directed mutant; settings: PC:PL, sulfatide or PI(4)P liposomes
T10 construct: Expresses amino-terminal 98 amino acids of ARV1; made in house; host or cells: E. coli BL21 (pGEX-4T1)
T10 sequence (Q9H2C2 1-98 C58A/C61A): T2 sequence (Q9H2C2 1-98) with C58A, C61A
Method: as §2, §3, §4, §5

GST-ARV1-N98 K54/K59A = target: T11, GST-ARV1-N98 K54/K59A (Homo sapiens, UniProt Q9H2C2, K54A/K59A); experiment: Liposome binding assay, site-directed mutant; settings: PC:PL, sulfatide liposomes
T11 construct: Expresses amino-terminal 98 amino acids of ARV1; made in house; host or cells: E. coli BL21 (pGEX-4T1)
T11 sequence (Q9H2C2 1-98 K54A/K59A): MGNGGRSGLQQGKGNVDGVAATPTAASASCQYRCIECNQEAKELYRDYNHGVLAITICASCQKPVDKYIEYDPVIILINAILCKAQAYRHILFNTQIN
Method: as §2, §3, §4, §5

GST-ARV1-N98 K67A = target: T12, GST-ARV1-N98 K67A (Homo sapiens, UniProt Q9H2C2, K67A); experiment: Liposome binding assay, site-directed mutant; settings: PC:PL, sulfatide liposomes
T12 construct: Expresses amino-terminal 98 amino acids of ARV1; made in house; host or cells: E. coli BL21 (pGEX-4T1)
T12 sequence (Q9H2C2 1-98 K67A): T2 sequence (Q9H2C2 1-98) with K67A
Method: as §2, §3, §4, §5

GST-ARV1-N98 N94A = target: T13, GST-ARV1-N98 N94A (Homo sapiens, UniProt Q9H2C2, N94A); experiment: Liposome binding assay, site-directed mutant; settings: PC:PL, sulfatide or PI(4)P liposomes
T13 construct: Expresses amino-terminal 98 amino acids of ARV1; made in house; host or cells: E. coli BL21 (pGEX-4T1)
T13 sequence (Q9H2C2 1-98 N94A): T2 sequence (Q9H2C2 1-98) with N94A
Method: as §2, §3, §4, §5

[2] = target: the molecule itself; experiment: sucrose density gradient centrifugation; 2.5 to 25% sucrose gradient in PBS, 132,000g for 19 h; fractions by SDS-PAGE and western with anti-ARV1; markers ovalbumin (50 kDa), bovine serum albumin (77 kDa), phosphorylase (103 kDa)
[3] = target: T14, 6XHIS-ARV1 (full-length human ARV1, N-terminal 6XHIS tag) (human, UniProt Q9H2C2 1-271); experiment: far-Western, overlay or dot blot; GST, GST-ARV1 truncations and 6XHIS-ARV1 dotted onto nitrocellulose, incubated with 6XHIS-ARV1 protein, probed with anti-6XHIS (and anti-GST) antibodies; settings: both partners purified
T14 construct: human ARV1, 271 amino acids, full length, expressed from pET-28a(+)-6XHIS-ARV1; also called hARV1; not shown: 6XHIS, N-terminal, kept
T14 sequence (looked up): T1 sequence (Q9H2C2 1-271)

lipid-protein interaction [1]: interacted | lipid-protein interaction (GST-ARV1-N98): interacted | lipid-protein interaction (GST-Annexin A2): interacted | change of lipid-protein interaction (GST-ARV1-N70): loss of interaction | change of lipid-protein interaction (6XHIS-ARV1-N98 C34/C37A): eliminated any interaction | change of lipid-protein interaction (6XHIS-ARV1-N98 C58/C61A): eliminated any interaction | change of lipid-protein interaction (6XHIS-ARV1-N98 K54/K59A): abolished | change of lipid-protein interaction (6XHIS-ARV1-N98 K67A): weakened | change of lipid-protein interaction (6XHIS-ARV1-N98 N94Q): more strongly | liposome binding (GST-ARV1-N98 C34/C37A): not | liposome binding (GST-ARV1-N98 C58/C61A): did not bind | liposome binding (GST-ARV1-N98 K54/K59A): unable to bind | liposome binding (GST-ARV1-N98 K67A): unable to bind | liposome binding (GST-ARV1-N98 N94A): very weak
Molecule: sulfatide

B1: E. coli expressed purified full-length ARV1 (sucrose density gradient) (natural protein, human, UniProt Q9H2C2 1-271, looked up)
chain: T1 sequence (Q9H2C2 1-271)
notes: human ARV1, full length; detected with anti-ARV1 antibodies; also called purified ARV1; source: E. coli, purified
stoichiometry N [2]: 2

binding result [3]: binds
B2: GST-ARV1-N90 (domain or fragment, human, UniProt Q9H2C2 1-90, looked up)
chain: MGNGGRSGLQQGKGNVDGVAATPTAASASCQYRCIECNQEAKELYRDYNHGVLKITICKSCQKPVDKYIEYDPVIILINAILCKAQAYRH
notes: human ARV1, amino-terminal 90 amino acids, expressed from pGEX-4T1-GST-N90; also called GST-N90; source: E. coli BL21, purified (glutathione beads); not shown: GST, N-terminal, kept
